Data: PubChem BioAssay (NCI)
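Cultured in 96-well plates, cells were exposed to test compound for 48 hours across five concentrations. Here, GI50 denotes the concentration required for 50% inhibition of growth. TGI denotes the concentration required for complete inhibition of growth.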

Key:
Test in all cases: NCI-60 cell line screen, 48 h
[1] = tested on: CAKI-1 renal
[2] = tested on: MCF7 breast
[3] = tested on: OVCAR-4 ovarian
[4] = tested on: OVCAR-5 ovarian
[5] = tested on: RXF 393 renal
[6] = tested on: SF-268 CNS
[7] = tested on: SF-295 CNS
[8] = tested on: SK-MEL-5 melanoma
[9] = tested on: SR leukemia
[10] = tested on: HCC-2998 colon

Compound	TGI [1]	TGI [2]	TGI [3]	TGI [4]	TGI [5]	TGI [6]	TGI [7]	TGI [8]	TGI [9]	TGI [10]	GI50 [1]	GI50 [10]	GI50 [2]	GI50 [3]	GI50 [4]	GI50 [5]	GI50 [6]	GI50 [7]	GI50 [8]	GI50 [9]
CC1(C)COC(/C=C/C2=NC(C)(C)CO2)=N1	23.4 µM	33.1 µM	99.5 µM	54.4 µM	34.5 µM	75.8 µM	> 100 µM	27.3 µM	27.3 µM	–	–	–	–	–	–	–	–	–	–	–
O=C1c2ccccc2-c2ccc(N=[N+]([O-])c3ccc4c(c3)C(=O)c3ccccc3-4)cc21	> 100 µM	> 100 µM	> 100 µM	> 100 µM	> 100 µM	> 100 µM	> 100 µM	> 100 µM	–	> 100 µM	–	–	–	–	–	–	–	–	–	–
CC(O)C(O)C(N)CC=O (stereo unspecified)	> 500 µM	> 500 µM	> 500 µM	> 500 µM	> 500 µM	> 500 µM	> 500 µM	> 500 µM	–	> 500 µM	–	–	–	–	–	–	–	–	–	–
COC(=O)C1=CC[C@@H]2C(C(=O)O)=CO[C@@H](OC3OC(CO)C(O)C(O)C3O)[C@H]12 (stereo partly specified)	> 300 µM	> 131 µM	> 300 µM	> 300 µM	> 300 µM	> 300 µM	> 193 µM	> 288 µM	–	> 300 µM	–	–	–	–	–	–	–	–	–	–
O=C(/C=C/c1ccc(O)cc1)NCCc1ccc(O)cc1	> 12.5 µM	> 12.5 µM	> 12.5 µM	> 12.5 µM	> 12.5 µM	> 12.5 µM	> 12.5 µM	> 12.5 µM	> 12.5 µM	–	–	–	–	–	–	–	–	–	–	–
CC(=O)OCC1OC(O[C@@H]2c3c(O)c4c(c(O)c3C3=C(NN(c5ccc([N+](=O)[O-])cc5[N+](=O)[O-])[Se]3=O)[C@@]2(C)O)C(=O)c2ccccc2C4=O)C(OC(C)=O)C(OC(C)=O)C1OC(C)=O (stereo partly specified)	0.722 µM	0.498 µM	0.634 µM	2.07 µM	3.81 µM	0.555 µM	1 µM	0.42 µM	0.502 µM	1.2 µM	–	–	–	–	–	–	–	–	–	–
CN(C)Cc1ccc(C(=O)Nc2ccc3ncnc(Nc4ccc(Oc5cccc(F)c5)c(Cl)c4)c3c2)cc1	3.15 µM	3 µM	3.09 µM	3.11 µM	2.99 µM	3.28 µM	3.11 µM	2.97 µM	–	3.11 µM	1.68 µM	1.67 µM	1.54 µM	1.53 µM	1.64 µM	1.5 µM	1.53 µM	1.71 µM	1.59 µM	–
C[N+]1(C)CCC(C#N)(c2ccccc2)CC1	> 100 µM	> 100 µM	> 100 µM	> 100 µM	> 100 µM	> 100 µM	> 100 µM	> 100 µM	> 100 µM	> 100 µM	–	–	–	–	–	–	–	–	–	–
CC(C)C(N=Cc1ccccc1O)C(=O)O (stereo unspecified)	> 100 µM	> 100 µM	> 100 µM	> 100 µM	–	> 100 µM	> 100 µM	> 100 µM	> 100 µM	–	–	–	–	–	–	–	–	–	–	–
Fc1ccc(-c2ccc(-c3nnc(-c4cc(F)c(Cl)cc4Cl)o3)o2)cc1Cl	89.9 µM	> 100 µM	> 100 µM	> 100 µM	> 100 µM	> 100 µM	> 100 µM	31.9 µM	> 100 µM	> 100 µM	33.7 µM	41.3 µM	26.8 µM	50.9 µM	> 100 µM	48 µM	33 µM	30.2 µM	17 µM	68.5 µM
